From PubChem BioAssay AID328 (DTP/NCI, 2004)
Values joined by “and” are separate entries in the source; they are usually repeats but may differ in a detail not shown here. Equal entries are not always repeated. Toxic doses and inconclusive results are not listed. Rule for the calls: active = survival T/C of 150% or more; inactive = T/C below 125% in these data.

Test system: BDF1 mice, P388 leukemia ip, median survival T/C
Assay: NCI In Vivo Anticancer Drug Screen. Data for tumor model P388 Leukemia (intraperitoneal) in B6D2F1 (BDF1) mice
Conditions: endpoint: median survival time, higher = longer survival
Procedure, shortened: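 Steps: implant the tumour, treat one group with compound and another with vehicle, record survival, then divide treated by control.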

[1] = dose: 100.0 mg/kg/injection, schedule: Q04DX003 (ip), vehicle: saline with Tween-80
[2] = dose: 200.0 mg/kg/injection, schedule: Q04DX003 (ip), vehicle: saline with Tween-80
[3] = dose: 400.0 mg/kg/injection, schedule: Q04DX003 (ip), vehicle: saline with Tween-80

Measured: T/C

NC(=O)SCC(=O)Nc1ccc2ncccc2c1
inactive: dose: 88.0 mg/kg/injection, schedule: Q01DX009 (ip), vehicle: saline 122 % of control | dose: 100.0 mg/kg/injection, schedule: Q04DX003 (ip), vehicle: saline sonified 104 % of control | dose: 132.0 mg/kg/injection, schedule: Q01DX009 (ip), vehicle: saline 118 % of control | dose: 200.0 mg/kg/injection, schedule: Q04DX003 (ip), vehicle: saline sonified 100 % of control | dose: 400.0 mg/kg/injection, schedule: Q04DX003 (ip), vehicle: saline sonified 100 % of control

c1ccc(N=NC2=NN(c3ccccc3)CS2)cc1
inactive: dose: 25.0 mg/kg/injection, schedule: Q01DX009 (ip), vehicle: saline with Tween-80 116 % of control | dose: 50.0 mg/kg/injection, schedule: Q01DX009 (ip), vehicle: saline with Tween-80 116 % of control

CCSC(C(O)C(O)C(O)C(O)CO)n1ccc(=O)[nH]c1=O (stereo unspecified)
inactive: dose: 12.5 mg/kg/injection, schedule: Q01DX001 (ip), vehicle: saline 100 % of control | dose: 25.0 mg/kg/injection, schedule: Q01DX001 (ip), vehicle: saline 100 % of control | dose: 50.0 mg/kg/injection, schedule: Q01DX001 (ip), vehicle: saline 100 % of control

CC(C)(C)P(O)(=S)c1ccccc1 (stereo unspecified) (tested in a mixture with another compound)
inactive: dose: 50.0 mg/kg/injection, schedule: Q01DX005 (ip), vehicle: saline 94 % of control | dose: 100.0 mg/kg/injection, schedule: Q01DX005 (ip), vehicle: saline 93 % of control | dose: 200.0 mg/kg/injection, schedule: Q01DX005 (ip), vehicle: saline 100 % of control

COc1ccc(OC(=O)CCCl)cc1
inactive: [1] 100 % of control | [2] 100 % of control | [3] 113 % of control

O=S1(=O)C=C(Cl)C2C3CC(C(Cl)C3Cl)C21 (stereo unspecified)
inactive: dose: 7.5 mg/kg/injection, schedule: Q01DX009 (ip), vehicle: saline with Tween-80 100 % of control | dose: 15.0 mg/kg/injection, schedule: Q01DX009 (ip), vehicle: saline with Tween-80 113 % of control | dose: 30.0 mg/kg/injection, schedule: Q01DX009 (ip), vehicle: saline with Tween-80 104 % of control

c1ccc(-c2ncc3cnccn23)cc1
inactive: dose: 3.12 mg/kg/injection, schedule: Q01DX009 (ip), vehicle: saline 100 % of control | dose: 6.25 mg/kg/injection, schedule: Q01DX009 (ip), vehicle: saline 100 % of control | dose: 12.5 mg/kg/injection, schedule: Q01DX009 (ip), vehicle: saline 100 % of control | dose: 12.5 mg/kg/injection, schedule: Q04DX003 (ip), vehicle: saline 114 % of control | dose: 25.0 mg/kg/injection, schedule: Q04DX003 (ip), vehicle: saline 116 % of control | dose: 50.0 mg/kg/injection, schedule: Q01DX009 (ip), vehicle: saline 88 % of control | dose: 50.0 mg/kg/injection, schedule: Q04DX003 (ip), vehicle: saline 105 % of control | dose: 100.0 mg/kg/injection, schedule: Q04DX003 (ip), vehicle: saline 107 % of control

COC(=O)c1cccn1C(=O)c1c2nc3c(C(=O)n4cccc4C(=O)OC)ccc(C)c3oc-2c(C)c(=O)c1N
inactive: [1] 101 % of control | [2] 102 % of control | [3] 103 % of control

O=C(CCC(=O)[O][Sn]([c]1ccccc1)([c]1ccccc1)[c]1ccccc1)[O][Sn]([c]1ccccc1)([c]1ccccc1)[c]1ccccc1
inactive: dose: 0.39 mg/kg/injection, schedule: Q01DX009 (ip), vehicle: Klucel (hydroxypropylcellulose) (HPC) 113 % of control | dose: 0.78 mg/kg/injection, schedule: Q01DX009 (ip), vehicle: Klucel (hydroxypropylcellulose) (HPC) 95 % of control | dose: 1.56 mg/kg/injection, schedule: Q01DX009 (ip), vehicle: Klucel (hydroxypropylcellulose) (HPC) 95 % of control | dose: 3.12 mg/kg/injection, schedule: Q01DX009 (ip), vehicle: Klucel (hydroxypropylcellulose) (HPC) 100 % of control and 104 % of control | dose: 12.5 mg/kg/injection, schedule: Q01DX009 (ip), vehicle: Klucel (hydroxypropylcellulose) (HPC) 120 % of control | dose: 40.0 mg/kg/injection, schedule: Q04DX003 (ip), vehicle: Klucel (hydroxypropylcellulose) (HPC) 104 % of control
